Measurements taken from US20230310435A1, “HOST DEFENSE PROTEIN (HDP) MIMETICS FOR PROPHYLAXIS AND/OR TREATMENT OF INFLAMMATORY DISEASES OF THE GASTROINTESTINAL TRACT” (priority 2015, published 2023).

Assays:
[1] = system: DSS-induced colitis; experiment: Dextran sulfate sodium (DSS)-induced acute colitis model; assay type: in vivo, male C57BL/6 mice; settings: end of study; brilacidin 400 mg/kg or 5-ASA 50 mg/kg per rectum Days 7-11
Description: The efficacy of brilacidin administered was investigated in a murine model of chemically-induced acute colitis using dextran sulfate sodium (DSS). This was a different in vivo model of IBD to the testing performed in Examples 16 and 17 (where mucosal injury was induced by using acetic acid). DSS-induced colitis in mice is characterized by weight loss, bloody diarrhea, intestinal ulcerations and infiltrations with granulocytes. In mice, DSS was administered from Day 0 to Day 11, as a 5% (w/v) DSS solution in the drinking water of male C57BL/6 mice (Kim J J, et al., J. Vis. Exp., 2012, 60, 3678), to induce severe murine colitis. On Days 7-11, test compound brilacidin (400 mg/kg) or positive control 5-ASA (50 mg/kg) or water (negative control) were administered as a solution, per rectum. On Days 6, 10 and 11, rectal bleeding was assessed using a Hemoccult® kit and stool consistency was visually assessed; severity of symptoms were scored on a scale of 0 (normal) to 4 (severe). Level of pro-inflammatory cytokines interleukin (IL)-6 and IL-1β in distal colon tissue were determined from excised colons using conventional ELISA methods.

[2] = system: acetic acid-induced colitis; assay type: in vivo
Description: Method for FIG. 14. […] Balb/c mice were fasted for 24 hours. Colitis was induced by injecting 200 μL of 4% acetic acid into the rectum. […] Another group of animals were treated with 5-ASA (5-aminosalicylic acid or mesalamine), and another received no treatment. Seven days after the first dose, five cm of intestine were cleaned in cold saline then weighed.
Method for FIG. 15. […] Balb/c mice were fasted for 24 hours. Colitis was induced by injecting 200 μL of 4% acetic acid into the rectum. […] Another group of animals were treated with 5-ASA (5-aminosalicylic acid or mesalamine), and another received no treatment. Seven days after the first dose the colon was examined visually for mucosal injury and scored according to the Table below.
Briefly, colitis was induced by injecting 4% acetic acid into the rectum.

[3] = system: LPS-induced MCP-1 release, NR8383 cells; experiment: LPS-induced MCP-1 release in NR8383 rat macrophages (ELISA); assay type: cell-based
Description: Method for FIG. 7. […] After 8 hours, supernatants were collected for MCP-1 measurement by ELISA. MCP-1 was measured using an immunoassay kit according to manufacturer's instructions (Thermo Scientific, Rockford. IL).
Method for FIG. 8. MCP-1 assays were performed using PMX-60056. Rat macrophages (NR8383) were pretreated with […] with concentrations shown for 45 minutes, followed by 1 μg/ml LPS treatment from E. coli (Sigma, St. Louis, MO) for 8 hours. After 8 hours, supernatants were collected for MCP-1 measurement by ELISA. MCP-1 was measured using an immunoassay kit according to manufacturer's instructions (Thermo Scientific, Rockford, IL).
The MCP-1 inhibition assay was performed according to the Method described for FIG. 7.
The MCP-1 inhibition assay was performed according to the Method described for FIG. 8.
(§1) PDE4 and PDE3 inhibition results in subsequent down-regulation of pro-inflammatory cytokines/chemokines and its regulators, and experiments were conducted to confirm such down-regulation by brilacidin in ex vivo cell-based assays. In these assays, cells were exposed to brilacidin 45 minutes before an 8-hour lipopolysaccharide (LPS) stimulation in the presence of brilacidin; cytokine/enzyme concentrations were determined by ELISA using a standard immunoassay kit.

[4] = target: human PDE3A (Homo sapiens, UniProt Q14432); experiment: PDE-Glo phosphodiesterase assay, PDE3; assay type: biochemical; settings: 2.75 ng PDE3A, 1 μM cAMP substrate, 15 min pre-incubation; read-out: IC50, inhibition of PDE3
Chain of human PDE3A (Q14432 whole entry): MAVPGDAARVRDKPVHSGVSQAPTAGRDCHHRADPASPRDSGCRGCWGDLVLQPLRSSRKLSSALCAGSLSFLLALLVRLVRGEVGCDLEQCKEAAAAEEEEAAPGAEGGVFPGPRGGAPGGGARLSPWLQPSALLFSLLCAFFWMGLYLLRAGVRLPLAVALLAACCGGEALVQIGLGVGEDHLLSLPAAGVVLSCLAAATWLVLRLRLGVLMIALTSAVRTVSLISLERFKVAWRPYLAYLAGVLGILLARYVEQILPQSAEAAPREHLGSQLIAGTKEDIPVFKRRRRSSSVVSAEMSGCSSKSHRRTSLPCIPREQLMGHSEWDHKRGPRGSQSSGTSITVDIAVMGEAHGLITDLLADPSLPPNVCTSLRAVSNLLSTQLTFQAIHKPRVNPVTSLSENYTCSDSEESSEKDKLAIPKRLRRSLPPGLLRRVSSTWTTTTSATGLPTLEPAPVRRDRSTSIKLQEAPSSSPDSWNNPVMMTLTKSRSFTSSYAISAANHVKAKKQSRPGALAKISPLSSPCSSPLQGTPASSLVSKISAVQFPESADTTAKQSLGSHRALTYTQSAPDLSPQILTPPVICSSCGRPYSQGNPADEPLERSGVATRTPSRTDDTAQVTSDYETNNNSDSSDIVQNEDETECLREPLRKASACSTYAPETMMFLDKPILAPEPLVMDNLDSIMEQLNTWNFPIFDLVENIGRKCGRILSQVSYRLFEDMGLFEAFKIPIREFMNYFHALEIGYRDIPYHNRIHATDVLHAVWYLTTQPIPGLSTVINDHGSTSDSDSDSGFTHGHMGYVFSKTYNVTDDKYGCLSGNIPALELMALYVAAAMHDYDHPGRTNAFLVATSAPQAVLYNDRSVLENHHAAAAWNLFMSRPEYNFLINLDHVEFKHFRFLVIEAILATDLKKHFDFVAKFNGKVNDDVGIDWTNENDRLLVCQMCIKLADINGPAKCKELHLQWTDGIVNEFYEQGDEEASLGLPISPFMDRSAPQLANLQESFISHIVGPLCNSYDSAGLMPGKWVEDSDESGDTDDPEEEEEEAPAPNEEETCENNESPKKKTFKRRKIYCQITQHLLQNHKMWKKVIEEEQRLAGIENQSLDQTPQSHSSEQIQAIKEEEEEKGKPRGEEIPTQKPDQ
Description: Method for FIG. 3. […] The compounds and PDE3A were mixed and pre-incubated at room temperature for 15 minutes. Substrate was added and the reaction was incubated for 7 minutes at room temperature. Data are presented as luminescence units (RLU).
Method for FIG. 4. Phosphodiesterase inhibition assays of PDE3 were performed using PMX-60056. The PDE-Glo phosphodiesterase assay (Promega, Madison, WI, USA Catalog No. V1361) was performed according to manufacturer's instruction using 2.75 ng of PDE3A, 1 μM cAMP substrate and PMX60056. The compounds and PDE3A were mixed and pre-incubated at room temperature for 15 minutes. Substrate was added and the reaction was incubated for 7 minutes at room temperature. Data are presented as luminescence units (RLU).
The compounds and PDE3A were mixed and pre-incubated at room temperature for 15 minutes. Substrate was added and the reaction was incubated. […]
as §1

[5] = target: human PDE4B2 (Homo sapiens, UniProt Q07343); experiment: PDE-Glo phosphodiesterase assay, PDE4; assay type: biochemical; settings: 8 ng PDE4B, 1 μM cAMP substrate, 15 min pre-incubation; read-out: IC50, inhibition of PDE4
Chain of human PDE4B2 (Q07343 1-564 isoform Q07343-2): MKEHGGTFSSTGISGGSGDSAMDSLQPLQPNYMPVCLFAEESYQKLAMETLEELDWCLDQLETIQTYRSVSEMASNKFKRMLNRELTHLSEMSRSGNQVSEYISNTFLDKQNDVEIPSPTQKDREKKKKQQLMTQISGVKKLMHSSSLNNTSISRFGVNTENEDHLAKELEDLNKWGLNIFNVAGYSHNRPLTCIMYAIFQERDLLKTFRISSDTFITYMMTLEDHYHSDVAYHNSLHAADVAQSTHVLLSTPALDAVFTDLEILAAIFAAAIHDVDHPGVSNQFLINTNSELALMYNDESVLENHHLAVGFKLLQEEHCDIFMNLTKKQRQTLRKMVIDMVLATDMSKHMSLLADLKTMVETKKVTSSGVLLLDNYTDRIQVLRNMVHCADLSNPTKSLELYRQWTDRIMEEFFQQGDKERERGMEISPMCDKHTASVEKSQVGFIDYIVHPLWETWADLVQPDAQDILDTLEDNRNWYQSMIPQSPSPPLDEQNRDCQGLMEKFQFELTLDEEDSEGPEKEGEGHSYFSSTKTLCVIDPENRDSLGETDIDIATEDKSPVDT
Description: Method for FIG. 1. […] The compounds and PDE4B (BPS Biosciences, San Diego, CA) were mixed and pre-incubated at room temperature for 15 minutes. Substrate was added and the reaction was incubated for 7 minutes at room temperature. Data are presented as luminescence units (RLU).
Method for FIG. 2. Phosphodiesterase inhibition assays of PDE4 were performed, using PMX-60056. The PDE-Glo phosphodiesterase assay (Promega, Madison, WI, USA Catalog No. V1361) was performed using 8 ng of PDE4B (BPS Biosciences, San Diego, CA). […] The compounds and PDE4B were mixed and pre-incubated at room temperature for 15 minutes. Substrate was added and the reaction was incubated for 7 minutes at room temperature. Data are presented as luminescence units (RLU).
Phosphodiesterase type 4 (PDE4) is predominant phosphodiesterase expressed in neutrophils, T cells and macrophages. PDE inhibitors show broad spectrum of anti-inflammatory effects in almost all inflammatory cells. PDE4 inhibitors, block the degradative action of PDE4 on cAMP, thereby increasing intracellular levels of cAMP levels which mediate phosphorylation of protein kinases. […] Data are presented as luminescence units (RLU).
The PDE-Glo phosphodiesterase assay was performed according to the Method described for FIG. 2, using 8 ng of PDE4B, 1 μM cAMP substrate PMX-60056. Data are presented as luminescence units (RLU). […]

[6] = system: LPS-induced TNF-α release, NR8383 cells; experiment: LPS-induced TNF-α production in NR8383 rat macrophages (ELISA); assay type: cell-based
Description: Method for FIG. 5. TNF-alpha assays were performed using PMX-30063. […] TNF-α concentrations in the supernatants were determined by ELISA using an immunoassay kit specific for rat TNF-α (R&D Systems, Minneapolis, MN) according to manufacturer's instructions.
Method for FIG. 6. TNF-alpha assays were performed using PMX-60056. NR8383 rat macrophage cells were pretreated with PMX-60056 for 45 minutes followed by treatment with 1 μg/ml LPS from E. coli (Sigma, St. Louis, MO) for 8 hours. TNF-α concentrations in the supernatants were determined by ELISA using an immunoassay kit specific for rat TNF-α (R&D Systems, Minneapolis, MN) according to manufacturer's instructions.
The TNF-α inhibition assay was performed according to the Method described for FIG. 5. […] TNF-α concentrations in the supernatants were determined by ELISA using an immunoassay kit specific for rat TNF-α (R&D Systems).
The TNF-α inhibition assay was performed according to the Method described for FIG. 6. NR8383 rat macrophage cells (CRL-2192. ATCC) were pretreated with PMX-60056 for 45 minutes followed by treatment with 1 μg/ml LPS for 8 hours. TNF-α concentrations in the supernatants were determined by ELISA using an immunoassay kit specific for rat TNF-α (R&D Systems).
as §1

Nc1ccc(O)c(C(=O)O)c1 [5-ASA, 5-aminosalicylic acid, reference compound]
mean reduction in IL-1β in distal colon tissue compared to DSS-treated control group [1]: 33% | mean reduction in IL-6 in distal colon tissue compared to DSS-treated control group [1]: 86% | reduction of UC score ([2]; 5-ASA group, not significantly): 67% | efficacy on ulcerative colitis score (in words) ([2]; 5-ASA positive control group): no significant efficacy

COc1ccc(NC(=O)[C@H](CCCCN)NC(=O)c2cc(NC(=O)[C@H](CCCCN)NC(=O)c3cc(NC(=O)[C@H](CCCCN)NC(=O)c4cc(NC(=O)[C@@H](N)CCCCN)ccc4OC)ccc3OC)ccc2OC)cc1C(N)=O [PMX-60056]
effect on MCP-1 induction after LPS stimulation (in words) ([3]; NR8383, 45 min pretreatment, LPS 1 μg/ml 8 h): strong inhibition | decrease in MCP-1 levels ([3]; at 0.5 μM, NR8383, LPS 1 μg/ml 8 h): ≥ 25% | IC50 [4]: 3 µM | IC50 [5]: ~3 µM | effect on LPS-induced TNF-α production (in words) ([6]; NR8383, 45 min pretreatment, 1 μg/ml LPS 8 h): inhibited | inhibition at 0.0625 µM ([6]; Rattus norvegicus, Macrophage, at 62.5 nM PMX-60056, NR8383, LPS 1 μg/ml 8 h): > 50%
